Results from patent US10202361B2, “Pyridazinones as herbicides” (E I DU PONT DE NEMOURS AND COMPANY, priority 2014, dated 2019).

How the values were obtained:
Assay in all cases: Test D pre-/postemergence controlled growth environment herbicide test
Format in all cases: in vivo
Settings in all cases: scale 0 to 100
[1] = system: radish, wild (wild radish, Raphanus raphanistrum)
How it was run: (§1)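 Visual injury scored 0–100 (100 = complete control) against untreated controls, 14–21 d after treatment in a controlled growth environment. Compounds, formulated in non-phytotoxic solvent with surfactant, were applied preemergence to silt loam soil or postemergence to 1- to 4-leaf plants (2–18 cm) in peat-based medium.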

[2] = system: lambsquarters (Chenopodium album)
How it was run: as §1

[3] = system: windgrass (Apera spica-venti)
How it was run: as §1

[4] = system: field poppy (Papaver rhoeas)
How it was run: as §1

[5] = system: wheat, spring (spring wheat, Triticum aestivum)
How it was run: as §1

[6] = system: field violet (Viola arvensis)
How it was run: as §1

[7] = system: foxtail, green (green foxtail, Setaria viridis)
How it was run: as §1

[8] = system: deadnettle (henbit deadnettle, Lamium amplexicaule)
How it was run: as §1

[9] = system: oat, wild (wild oat, Avena fatua)
How it was run: as §1

[10] = system: chamomile (scentless chamomile, Matricaria inodora)
How it was run: as §1

[11] = system: bluegrass (annual bluegrass, Poa annua)
How it was run: as §1

Measured: Plant response rating

Cc1cc(=O)n(-c2ccc(C(F)(F)F)cc2)nc1Cc1ccnc(C(F)(F)F)c1 [Compound 2, 5-methyl-2-[4-(trifluoromethyl)phenyl]-6-[[2-(trifluoromethyl)-4-pyridinyl]methyl]-3(2H)-pyridazinone]
5: [7]; Postemergence, 62 g ai/ha
0: [5]; Preemergence, 31 g ai/ha | [5]; Preemergence, 62 g ai/ha | [7]; Postemergence, 31 g ai/ha | [9]; Preemergence, 31 g ai/ha | [9]; Preemergence, 62 g ai/ha | [10]; Preemergence, 31 g ai/ha | [10]; Preemergence, 62 g ai/ha | [11]; Preemergence, 31 g ai/ha | [11]; Preemergence, 62 g ai/ha
25: [3]; Postemergence, 250 g ai/ha | [4]; Postemergence, 31 g ai/ha | [10]; Preemergence, 125 g ai/ha
75: [2]; Preemergence, 62 g ai/ha | [2]; Preemergence, 125 g ai/ha | [4]; Postemergence, 62 g ai/ha | [7]; Postemergence, 500 g ai/ha | [8]; Postemergence, 250 g ai/ha
90: [1]; Postemergence, 125 g ai/ha | [2]; Postemergence, 500 g ai/ha | [2]; Preemergence, 250 g ai/ha | [2]; Preemergence, 500 g ai/ha | [6]; Postemergence, 62 g ai/ha | [6]; Preemergence, 125 g ai/ha | [8]; Postemergence, 500 g ai/ha | [10]; Preemergence, 500 g ai/ha
40: [2]; Postemergence, 125 g ai/ha | [7]; Postemergence, 125 g ai/ha | [8]; Postemergence, 31 g ai/ha | [8]; Postemergence, 62 g ai/ha | [10]; Postemergence, 250 g ai/ha
95: [3]; Preemergence, 250 g ai/ha
60: [3]; Preemergence, 125 g ai/ha | [6]; Preemergence, 31 g ai/ha | [10]; Postemergence, 500 g ai/ha
15: [3]; Postemergence, 62 g ai/ha | [5]; Postemergence, 250 g ai/ha | [5]; Preemergence, 125 g ai/ha | [9]; Postemergence, 250 g ai/ha | [11]; Postemergence, 62 g ai/ha
10: [3]; Postemergence, 31 g ai/ha | [5]; Postemergence, 31 g ai/ha | [5]; Postemergence, 62 g ai/ha | [5]; Postemergence, 125 g ai/ha | [9]; Postemergence, 31 g ai/ha | [9]; Postemergence, 62 g ai/ha | [9]; Postemergence, 125 g ai/ha | [11]; Postemergence, 31 g ai/ha | [11]; Preemergence, 125 g ai/ha
50: [3]; Preemergence, 62 g ai/ha | [5]; Preemergence, 500 g ai/ha | [6]; Postemergence, 31 g ai/ha | [10]; Preemergence, 250 g ai/ha
20: [1]; Postemergence, 31 g ai/ha | [1]; Postemergence, 62 g ai/ha | [2]; Postemergence, 31 g ai/ha | [2]; Postemergence, 62 g ai/ha | [2]; Preemergence, 31 g ai/ha | [3]; Postemergence, 125 g ai/ha | [3]; Preemergence, 31 g ai/ha | [5]; Postemergence, 500 g ai/ha | [7]; Preemergence, 31 g ai/ha | [11]; Postemergence, 125 g ai/ha | [11]; Postemergence, 250 g ai/ha
45: [7]; Postemergence, 250 g ai/ha
30: [5]; Preemergence, 250 g ai/ha | [9]; Postemergence, 500 g ai/ha | [10]; Postemergence, 31 g ai/ha | [10]; Postemergence, 62 g ai/ha | [10]; Postemergence, 125 g ai/ha | [11]; Postemergence, 500 g ai/ha | [11]; Preemergence, 250 g ai/ha
85: [7]; Preemergence, 125 g ai/ha
100: [1]; Postemergence, 250 g ai/ha | [1]; Postemergence, 500 g ai/ha | [1]; Preemergence, 31 g ai/ha | [1]; Preemergence, 62 g ai/ha | [1]; Preemergence, 125 g ai/ha | [1]; Preemergence, 250 g ai/ha | [1]; Preemergence, 500 g ai/ha | [3]; Preemergence, 500 g ai/ha | [4]; Postemergence, 125 g ai/ha | [4]; Postemergence, 500 g ai/ha | [4]; Preemergence, 31 g ai/ha | [4]; Preemergence, 62 g ai/ha | [4]; Preemergence, 125 g ai/ha | [4]; Preemergence, 250 g ai/ha | [4]; Preemergence, 500 g ai/ha | [6]; Postemergence, 125 g ai/ha | [6]; Postemergence, 250 g ai/ha | [6]; Postemergence, 500 g ai/ha | [6]; Preemergence, 250 g ai/ha | [6]; Preemergence, 500 g ai/ha | [7]; Preemergence, 250 g ai/ha | [7]; Preemergence, 500 g ai/ha | [8]; Preemergence, 31 g ai/ha | [8]; Preemergence, 62 g ai/ha | [8]; Preemergence, 125 g ai/ha | [8]; Preemergence, 250 g ai/ha | [8]; Preemergence, 500 g ai/ha | [11]; Preemergence, 500 g ai/ha
35: [3]; Postemergence, 500 g ai/ha | [9]; Preemergence, 125 g ai/ha
70: [8]; Postemergence, 125 g ai/ha
80: [2]; Postemergence, 250 g ai/ha | [4]; Postemergence, 250 g ai/ha | [6]; Preemergence, 62 g ai/ha | [9]; Preemergence, 250 g ai/ha | [9]; Preemergence, 500 g ai/ha
